In ChEMBL document CHEMBL2363022, “Malaria Box Schistosomiasis Screening Data” (2013) one finds Toxicity data, which are given here for 54 molecules.

What all share (assay type): functional
Common to all, as to design: scale not given here

Experiment [1] relates to Schistosoma mansoni.
For experiment [2], the system named is Schistosoma mansoni. The source holds these as a separate data set.
Experiment [3] has as its system Schistosoma mansoni. The source holds these as a separate data set.

Take `CCN(Cc1ccccc1)C1CCN(Cc2cc(Br)ccc2O)CC1.O=C(O)C(=O)O`: the Toxicity in the experiment on Schistosoma mansoni [1], with Schistosoma mansoni [2] and with Schistosoma mansoni [3] was 0 each time.
For `COc1ccc(-c2cc(=O)oc3c4c(ccc23)OCN(Cc2ccc(F)cc2)C4)cc1`, the Toxicity in the experiment on Schistosoma mansoni [1], with Schistosoma mansoni [2] and in the experiment with Schistosoma mansoni [3] was 0 each time.
As to `CCOc1ccccc1CN1CCc2nc3cc(C(C)(C)C)nn3c(O)c2C1`, the Toxicity is 0 in the experiment on Schistosoma mansoni [1], 2 with Schistosoma mansoni [2] and 2 in the experiment with Schistosoma mansoni [3].
As for `Cc1sc(NC(=O)c2ccco2)c(C(c2cccnc2)N2CCC(Cc3ccccc3)CC2)c1C` (configuration not stated), the values for the Toxicity with Schistosoma mansoni [1], with Schistosoma mansoni [2] and in the experiment with Schistosoma mansoni [3] were 1, 4 and 4, respectively.
In the case of `C[n+]1c2ccccc2nc2ccc(NCCO)cc21`, the Toxicity with Schistosoma mansoni [1] was found to be 0; with Schistosoma mansoni [2], 0; with Schistosoma mansoni [3], 3.
As to `O=C(Nc1cccc(-c2nc3ccccc3[nH]2)c1)c1cccc(NC(=O)c2ccco2)c1`, the Toxicity came out at 0 in the experiment with Schistosoma mansoni [1], 0 in the experiment on Schistosoma mansoni [2] and 1 with Schistosoma mansoni [3].
With `Cc1cc(=O)oc2c1ccc1oc(C(=O)c3ccccc3)c(C)c12`, the Toxicity in the experiment with Schistosoma mansoni [1], in the experiment on Schistosoma mansoni [2] and in the experiment with Schistosoma mansoni [3] was 0 in each case.
As for `CCCN(CCC)CCCNC(=O)c1cc2c(-c3ccc(OC)c(OC)c3)nn(C)c2s1`, the results for the Toxicity in the experiment on Schistosoma mansoni [1], in the experiment on Schistosoma mansoni [2] and in the experiment with Schistosoma mansoni [3] were 0, 0 and 3, respectively.
On to `COC(=O)c1ccc(Cl)c2c1C1C=CCC1C(c1cccc3ccccc13)N2` (configuration not stated), for which the Toxicity in the experiment with Schistosoma mansoni [1], in the experiment on Schistosoma mansoni [2] and in the experiment on Schistosoma mansoni [3] was 0 in each case.
Consider `COc1ccc(C(O)(CCC(C)C)C(CN2CCOCC2)c2ccc(Cl)cc2)cc1.Cl` (configuration not stated), for which the Toxicity in the experiment on Schistosoma mansoni [1], with Schistosoma mansoni [2] and in the experiment with Schistosoma mansoni [3] was 0 throughout.
Take `c1ccc(CNc2nc(Nc3ccccc3)nc3ccccc23)cc1`: the Toxicity in the experiment on Schistosoma mansoni [1], with Schistosoma mansoni [2] and in the experiment on Schistosoma mansoni [3] was 2 in each case.
In the case of `CCOc1ccc2c(c1)CN(Cc1ccc(Cl)cc1)CO2`, the values for the Toxicity in the experiment with Schistosoma mansoni [1], with Schistosoma mansoni [2] and with Schistosoma mansoni [3] were 2, 0 and 0, respectively.
As to `O=C(Nc1ccc(N2CCCCC2)c(Cl)c1)c1ccc(Br)o1`, the Toxicity in the experiment with Schistosoma mansoni [1], with Schistosoma mansoni [2] and in the experiment on Schistosoma mansoni [3] was 0 each time.
In the case of `CCOc1cccc2sc(N(Cc3cccnc3)C(=O)C3CCCCC3)nc12`, the Toxicity with Schistosoma mansoni [1], in the experiment with Schistosoma mansoni [2] and with Schistosoma mansoni [3] was 0 throughout.
For `Cl.Cn1c(=O)n(C)c2cc(CNCCNc3ccnc4cc(Cl)ccc34)ccc21`, the values for the Toxicity in the experiment on Schistosoma mansoni [1], in the experiment on Schistosoma mansoni [2] and in the experiment with Schistosoma mansoni [3] were 0, 1 and 1, respectively.
On to `COc1cc(-c2nc(-c3ccc(Sc4ccccc4)cc3)c(-c3ccccc3)[nH]2)cc(OC)c1O`, for which the Toxicity with Schistosoma mansoni [1], in the experiment on Schistosoma mansoni [2] and in the experiment with Schistosoma mansoni [3] was 0 throughout.
`CCn1c(CN2CCN(Cc3ccccc3)CC2)nc2cc(NC(=O)c3cccs3)ccc21`: the Toxicity in the experiment on Schistosoma mansoni [1], in the experiment on Schistosoma mansoni [2] and in the experiment on Schistosoma mansoni [3] was 0 each time.
Consider `Cc1ccc(S(=O)(=O)c2c(COC(=O)c3cccc(C)c3)c(-c3ccccc3)nn2C)cc1`, for which the Toxicity in the experiment on Schistosoma mansoni [1], with Schistosoma mansoni [2] and in the experiment on Schistosoma mansoni [3] was 0 throughout.
On to `COc1cc(OC)c(N(C)C(=O)c2cc3c(s2)-c2ccccc2S(=O)(=O)C3)cc1Cl`, for which the Toxicity in the experiment on Schistosoma mansoni [1], with Schistosoma mansoni [2] and with Schistosoma mansoni [3] was 0 in each case.
Consider `Cc1cc(Nc2ccc(Cl)cc2)n2nc(C(F)(F)F)nc2n1`, for which the Toxicity with Schistosoma mansoni [1], with Schistosoma mansoni [2] and in the experiment on Schistosoma mansoni [3] was 0 in each case.
`CCN1CCN(c2cc(C)c3cc(NC(=O)c4ccc(OC)c(OC)c4)ccc3n2)CC1`: the Toxicity worked out at 1 with Schistosoma mansoni [1], 0 in the experiment with Schistosoma mansoni [2] and 0 in the experiment on Schistosoma mansoni [3].
Turning to `COc1ccc2c(c1)OC(O)(C(F)(F)C(F)(F)F)CC2=O` (configuration not stated), the Toxicity with Schistosoma mansoni [1], with Schistosoma mansoni [2] and in the experiment with Schistosoma mansoni [3] was 0 in each case.
Turning to `CN(C)c1ccc(C=Cc2nc(=O)c3ccccc3o2)cc1`, the Toxicity with Schistosoma mansoni [1], in the experiment with Schistosoma mansoni [2] and in the experiment with Schistosoma mansoni [3] was 0 in each case.
As to `COc1ccccc1NC1=C(N2CCCCC2)C(=O)c2ccccc2C1=O`, the Toxicity in the experiment on Schistosoma mansoni [1], in the experiment on Schistosoma mansoni [2] and in the experiment with Schistosoma mansoni [3] was 4 throughout.
Regarding `CCOc1cccc(C(=O)Nc2ccc(-c3nc4ccccc4[nH]3)cc2)c1`, the Toxicity in the experiment with Schistosoma mansoni [1] is 0; in the experiment on Schistosoma mansoni [2], 0; in the experiment on Schistosoma mansoni [3] it was 2.
`CCN1CCN(c2c(C(=O)c3ccccc3)cnc3cc(OC)c(OC)cc23)CC1`: the Toxicity in the experiment with Schistosoma mansoni [1], in the experiment on Schistosoma mansoni [2] and in the experiment on Schistosoma mansoni [3] was 0 in each case.
`CN(C)c1ccc(N=Cc2ccc(N3CCOCC3)cc2)cc1`: the Toxicity with Schistosoma mansoni [1], in the experiment with Schistosoma mansoni [2] and in the experiment with Schistosoma mansoni [3] was 0 in each case.
Turning to `CCN(CC)CCNc1ccnc2cc3ccccc3cc12.O=P(O)(O)O`, the Toxicity with Schistosoma mansoni [1] is on record as 2; in the experiment on Schistosoma mansoni [2] it was 3; with Schistosoma mansoni [3], 3.
Turning to `CN1CCN(c2ncnc3c2[nH]c2ccc(Cl)cc23)CC1`, the Toxicity in the experiment on Schistosoma mansoni [1], in the experiment with Schistosoma mansoni [2] and in the experiment on Schistosoma mansoni [3] was 0 throughout.
Turning to `O=C(NC1CCN(Cc2ccccc2)CC1)c1cc(-c2cccnc2)nc2ccc(Cl)cc12`, the Toxicity in the experiment on Schistosoma mansoni [1], in the experiment with Schistosoma mansoni [2] and in the experiment on Schistosoma mansoni [3] was 0 each time.
Take `O=C(CCl)NCCOc1ccc(Cl)cc1Cl`: the Toxicity is listed as 0 in the experiment with Schistosoma mansoni [1], 3 in the experiment on Schistosoma mansoni [2] and 4 in the experiment with Schistosoma mansoni [3].
On the same counts, the results for `COc1ccc(C2=C(c3ccc(OC)cc3)C3(c4ccccc4)C(=O)C2(c2ccccc2)C2C(=O)N(c4ccc(C)cc4)C(=O)C23)cc1` (configuration not stated) are 0, 0 and 0.
In the case of `CCC(O)c1ccc(Br)cc1NC(=O)c1cccc(Cl)c1` (configuration not stated), the Toxicity in the experiment on Schistosoma mansoni [1], with Schistosoma mansoni [2] and with Schistosoma mansoni [3] was 0 throughout.
Turning to `Nc1ccc(-c2nc3cc(Cc4ccc5[nH]c(-c6ccc(N)cc6)nc5c4)ccc3[nH]2)cc1`, the Toxicity in the experiment with Schistosoma mansoni [1], in the experiment with Schistosoma mansoni [2] and with Schistosoma mansoni [3] was 1 each time.
For the molecule `O=c1cc(NC2CCN(CCCc3ccccc3)CC2)c2cc(Cl)ccc2o1`, the results for the Toxicity with Schistosoma mansoni [1], with Schistosoma mansoni [2] and in the experiment with Schistosoma mansoni [3] were 2, 1 and 2, respectively.
Turning to `Cc1ccc(-c2cc3nc4c(c(O)n3n2)CCCC4)cc1`, the Toxicity in the experiment on Schistosoma mansoni [1], with Schistosoma mansoni [2] and with Schistosoma mansoni [3] was 0 in each case.
As for `CCOC(=O)C1=C(C)N=c2sc(=Cc3cc(Cl)ccc3O)c(=O)n2C1c1ccc(OC)cc1` (configuration not stated), the Toxicity in the experiment on Schistosoma mansoni [1], with Schistosoma mansoni [2] and in the experiment on Schistosoma mansoni [3] was 0 in each case.
In the case of `Cc1cc(Nc2ccc3ccccc3c2)n2ncnc2n1`, the Toxicity is 0 in the experiment with Schistosoma mansoni [1], 1 with Schistosoma mansoni [2] and 1 in the experiment with Schistosoma mansoni [3].
With `Oc1c2c(nc3cc(-c4ccccc4)nn13)CCCC2`, the Toxicity with Schistosoma mansoni [1], in the experiment on Schistosoma mansoni [2] and in the experiment on Schistosoma mansoni [3] was 0 each time.
On to `O=C(Nc1ccc(CN2CCOCC2)cc1)c1ccc(-c2cc(Cl)ccc2Cl)o1`, for which the Toxicity turned out to be 0 in the experiment with Schistosoma mansoni [1], 2 in the experiment with Schistosoma mansoni [2] and 0 in the experiment on Schistosoma mansoni [3].
Regarding `O=C(NC1CCN(Cc2ccccc2)CC1)c1cc2nc(-c3ccc(Cl)s3)cc(C(F)(F)F)n2n1`, the results for the Toxicity in the experiment with Schistosoma mansoni [1], in the experiment on Schistosoma mansoni [2] and in the experiment with Schistosoma mansoni [3] were 0, 4 and 4, respectively.
With `c1ccc(Cn2c(N=Nc3c(Nc4ccccc4)ccc4ccccc34)nc3ccccc32)cc1`, the Toxicity with Schistosoma mansoni [1], in the experiment with Schistosoma mansoni [2] and in the experiment on Schistosoma mansoni [3] was 0 in each case.
Regarding `O=C(CCc1ccco1)NC1CCN(CC2(c3ccc(Cl)cc3)CCC2)CC1`, the Toxicity with Schistosoma mansoni [1], with Schistosoma mansoni [2] and with Schistosoma mansoni [3] was 0 throughout.
With `OC1=C2C(=Nc3ccccc3SC2c2ccccc2)c2ccccc21` (configuration not stated), the Toxicity in the experiment on Schistosoma mansoni [1], with Schistosoma mansoni [2] and in the experiment with Schistosoma mansoni [3] was 0 in each case.
As for `COc1ccc2c(=O)cc(C(Cl)(Cl)Cl)oc2c1`, the Toxicity in the experiment on Schistosoma mansoni [1] amounted to 0; in the experiment with Schistosoma mansoni [2], 0; with Schistosoma mansoni [3] it was 3.
On to `O=C1c2ccccc2C2=Nc3ccccc3SC(c3cccc(F)c3)C12` (configuration not stated), for which the Toxicity in the experiment with Schistosoma mansoni [1], in the experiment with Schistosoma mansoni [2] and with Schistosoma mansoni [3] was 1 in each case.
Consider `COc1ccc2c(c1)C1(Nc3ccccc3-c3nc4ccccc4n31)C(=O)N2` (configuration not stated), for which the Toxicity in the experiment on Schistosoma mansoni [1], in the experiment on Schistosoma mansoni [2] and with Schistosoma mansoni [3] was 0 throughout.
For the molecule `CCOc1ccc(C2N(C)c3ccccc3N2C)cc1`, the Toxicity in the experiment with Schistosoma mansoni [1] came to 2; with Schistosoma mansoni [2] it was 0; with Schistosoma mansoni [3] it was 0.
As to `Cc1ccc(Nc2nc(NCCO)c3ccccc3n2)cc1C`, the Toxicity with Schistosoma mansoni [1] was 1; in the experiment on Schistosoma mansoni [2], 0; in the experiment on Schistosoma mansoni [3], 1.
Regarding `CCc1ccc(Nc2cc(C)nc3nc(C)nn23)cc1`, the Toxicity in the experiment on Schistosoma mansoni [1], with Schistosoma mansoni [2] and in the experiment with Schistosoma mansoni [3] was 0 each time.
With `Cc1ccc(NC(=O)Nc2cccc(Cl)c2)cc1F`, the Toxicity is 1 in the experiment on Schistosoma mansoni [1], 0 with Schistosoma mansoni [2] and 0 in the experiment with Schistosoma mansoni [3].
Regarding `CC(=O)c1ccc(NC(=O)CSc2nc(-c3ccccc3Cl)ns2)cc1`, the Toxicity in the experiment with Schistosoma mansoni [1], in the experiment on Schistosoma mansoni [2] and in the experiment on Schistosoma mansoni [3] was 0 throughout.
Regarding `CSC1=NC(=Nc2c(C)cccc2C)C2(CCC(C(C)(C)C)CC2)N1c1ccc(Cl)cc1` (configuration not stated), the Toxicity with Schistosoma mansoni [1] amounted to 1; in the experiment on Schistosoma mansoni [2], 1; in the experiment with Schistosoma mansoni [3] it was 0.
Turning to `FC(F)(F)c1cccc(Nc2nc(-c3ccccc3)nc3ncccc23)c1`, the Toxicity in the experiment on Schistosoma mansoni [1], with Schistosoma mansoni [2] and with Schistosoma mansoni [3] was 0 throughout.
